Experimental data taken from US20240318141A1, “MATURATION AGENT” (Orizuru Therapeutics, Inc., priority 2021, published 2024).
Where “and” joins values, the source holds several entries; their conditions need not be identical. Equal entries are not always repeated.

What was measured:
[1] = test system: non-endocrine cells in insulin-producing cell population (QHJI-I14s04 iPS cell line); test: Cisplatin or docetaxel treatment in step 6), then extended culture in basal medium containing EGF (Example 2); format: cell-based, human
Source text: The differentiation of a QHJI-I14s04 iPS cell line into an insulin-producing cell population was induced by the three-dimensional culture method using a bioreactor according to steps 1) to 6) described above and the previous report (Nature Biotechnology 2014; 32: 1121-1133). Specifically, the iPS cells were subjected to the first culture in a medium (DMEM/1% B-27 (INS+)/Penicillin Streptomycin/dimethyl sulfoxide) containing differentiation-inducing factors (GSK3β inhibitor, ROCK inhibitor and low dose of activin A) under conditions causing action of insulin, and subsequently subjected to the second culture in a medium (DMEM/1% B-27 (INS−)/Penicillin Streptomycin/dimethyl sulfoxide) containing a differentiation-inducing factor (low dose of activin A) under conditions causing no action of insulin to obtain a definitive endoderm cell population. Further, a pancreatic endocrine progenitor cell population obtained by the induction of differentiation from the definitive endoderm cell population was cultured in a medium (Improved MEM/1% B-27 (INS+)/Penicillin Streptomycin) containing differentiation-inducing factors (ALK5 inhibitor II, T3, LDN, Y-secretase inhibitor RO, and ascorbic acid) and FGF receptor 1 inhibitor (PD-166866) to obtain an insulin-producing cell population.
An insulin-producing cell population obtained without the addition of cisplatin and docetaxel was used as a control cell population and subjected to extended culture in the same manner as above.
Marker protein expression (PDX1, CHGA, and Ki67) in each insulin-producing cell population before the start of and after the completion of extended culture was measured by flow cytometry. Samples after the completion of extended culture were collected by sampling three times from the same culture container. The number of cells was measured in an automatic cell counter at the time of sample preparation for flow cytometry, and the total number of cells per mL of the bioreactor was calculated. The number of CHGA-positive cells, the number of PDX1-positive and CHGA-negative cells, and the number of PDX1-negative and CHGA-negative cells were calculated from the obtained total number of cells and the flow cytometry results.

[2] = test system: insulin-producing cell population (QHJI-114s04 iPS cell line); test: Marker protein expression by flow cytometry of insulin-producing cell population prepared by addition of docetaxel (Example 3); format: cell-based, human
Source text: The differentiation of a QHJI-114s04 iPS cell line into insulin-producing cells was induced by the three-dimensional culture method using a bioreactor and a multiwell plate according to steps 1) to 6) described above and the previous report (Nature Biotechnology 2014; 32: 1121-1133). Specifically, the iPS cells were subjected to the first culture in a medium (DMEM/1% B-27 (INS+)/Penicillin Streptomycin/dimethyl sulfoxide) containing differentiation-inducing factors (GSK3β inhibitor, ROCK inhibitor and low dose of activin A) under conditions causing action of insulin, and subsequently subjected to the second culture in a medium (DMEM/1% B-27 (INS−)/Penicillin Streptomycin/dimethyl sulfoxide) containing a differentiation-inducing factor (low dose of activin A) under conditions causing no action of insulin to obtain definitive endoderm cells. Further, a pancreatic endocrine progenitor cell population obtained by the induction of differentiation from the definitive endoderm cells was cultured in a medium (MCDB131/20 mM Glucose/NaHCO3/FAF-BSA/ITS-X/Glutamax/Penicillin Streptomycin) containing differentiation-inducing factors (ALK5 inhibitor II, T3, LDN, γ-secretase inhibitor RO, […]) to obtain an insulin-producing cell population. The exchange from the bioreactor to the multiwell plate was carried out in step 6).
Marker protein expression (NKX6.1, C-peptide (insulin), CHGA, and Ki67) in each insulin-producing cell population after the completion of culture was measured by flow cytometry. Respective samples were collected by sampling from separate culture containers. The number of cells was measured in an automatic cell counter at the time of sample preparation for flow cytometry, and the total number of cells per well of the multiwell plate was calculated.

[3] = test system: immunodeficient NOD/SCID mouse with streptozotocin-induced insulin-deficient diabetes mellitus; test: In vivo transplantation of insulin-producing cell population prepared by addition of docetaxel: plasma human C-peptide and graft weight (Example 5)
Method: An immunodeficient NOD/SCID mouse was prepared by inducing insulin-deficient diabetes mellitus with streptozotocin. […] After transplantation, a human C-peptide concentration in plasma was measured over time. The graft was excised 6 months after transplantation, and its weight was measured.

[4] = test system: non-endocrine cells in graft (Outgrowth, Cyst); test: Evaluation of non-endocrine cells in graft and protein expression by HE and immunohistological staining (Example 5); format: in vivo, mouse; details: graft 6 months after transplantation
Method: The excised graft was fixed and dehydrated, and a paraffin section was then prepared and subjected to HE staining and immunohistological staining for the expression of the proteins of interest (insulin, glucagon, Ki67, human nucleus, PDX1, and CK19). The presence or absence of non-endocrine cells was confirmed on the basis of the morphology and staining image thereof. The number and frequency of non-endocrine cells appearing in the graft were counted as total numbers from four tests conducted with cells derived from a plurality of batches treated in the same manner.
Outgrowth shown in Table 9 refers to a population of human nucleus-positive, PDX1-negative, and Ki67-positive non-endocrine cells, and its presence was determined from morphology by HE staining as well as by immunohistological staining. Cyst shown in Table 9 refers to human nucleus-positive, PDX1-positive, and CK19-positive non-endocrine duct cells, and its presence was determined from a duct form by HE staining as well as by immunohistological staining.

[5] = after extended culture 4 weeks, EGF present, average of three samplings
[6] = after extended culture 4 weeks, EGF present, single samplings
[7] = after extended culture involving EGF, with respect to control cell population
[8] = s6d11 (before extended culture); 3 μM cisplatin or 1 μM docetaxel for 7 days from day 4 of step 6)

CC(=O)O[C@@]12CO[C@@H]1C[C@H](O)[C@@]1(C)C(=O)[C@H](O)C3=C(C)[C@@H](OC(=O)[C@H](O)[C@@H](NC(=O)OC(C)(C)C)c4ccccc4)C[C@@](O)([C@@H](OC(=O)c4ccccc4)[C@H]21)C3(C)C [Docetaxel, (−)-(1S,2S,3R,4S,5R,7S,8S,10R,13S)-4-Acetoxy-2-benzoyloxy-5,20-epoxy-1,7,10-trihydroxy-9-oxotax-11-en-13-yl (2R,3S)-3-tert-butoxycarbonylamido-2-hydroxy-3-phenylpropionate]
population exhibiting marked increase by extended culture (table footnote) ([1]; 1 μM docetaxel, extended culture with EGF): No population exhibited marked increase by extended culture | The number of cells CHGA+, average [1, 5]: 22 ×10^4 cells/mL | The number of cells PDX+/CHGA−, average [1, 5]: 1.7 ×10^4 cells/mL | The number of cells PDX−/CHGA−, average [1, 5]: 2.8 ×10^4 cells/mL | Total number of cells, average [1, 5]: 27 ×10^4 cells/mL | The number of cells CHGA+ [1, 6]: 21 ×10^4 cells/mL and 22 ×10^4 cells/mL and 24 ×10^4 cells/mL | The number of cells PDX+/CHGA− [1, 6]: 2.0 ×10^4 cells/mL and 1.5 ×10^4 cells/mL | The number of cells PDX−/CHGA− [1, 6]: 3.1 ×10^4 cells/mL and 2.7 ×10^4 cells/mL | Total number of cells [1, 6]: 26 ×10^4 cells/mL and 28 ×10^4 cells/mL | proportion of PDX1-negative and CHGA-negative (PDX1−/CHGA−) cells [1, 7]: drastically decreased | proportion of PDX1-positive and CHGA-negative (PDX1+/CHGA−) cells [1, 7]: drastically decreased | total number of cells after extended culture (in words) ([1]; extended culture involving EGF): decreased | The number of cells CHGA+ [1, 8]: 73 ×10^4 cells/mL | The number of cells PDX+/CHGA− [1, 8]: 1.3 ×10^4 cells/mL | The number of cells PDX−/CHGA− [1, 8]: 0.1 ×10^4 cells/mL | Total number of cells [1, 8]: 74 ×10^4 cells/mL | number of CHGA-positive endocrine cells after extended culture (in words) ([1]; with respect to control cell population): not changed | increase of proportion of INS-positive and NKX6.1-positive cells ([2]; 1 μM docetaxel, 7 days from day 4 of step 6), with respect to control cell population): about 10% | Total number of cells ([2]; docetaxel treatment 1, 3 or 10 μM): not changed | abundance of CHGA-negative and Ki67-positive (CHGA−/Ki67+) cells ([2]; medium with PD-166866, irrespective of presence or absence of docetaxel treatment, without extended culture): ≤ 0.1% | action on proportion of INS-positive and NKX6.1-positive cells at higher concentration ([2]; up to the docetaxel concentration of 10 μM): not changed | graft weight ([3]; graft excised at 6 months after transplantation): low tendency | persistence of human C-peptide secretion after transplantation ([3]; subcutaneous transplantation, follow-up): continuously confirmed up to 6 months after transplantation | human C-peptide secretion in plasma ([3]; subcutaneously transplanted cell population prepared by addition of docetaxel vs prepared without docetaxel): at the same level | Ki67-positive cells in graft (immunohistological staining) [4]: slightly scattered | insulin-positive and glucagon-positive cells in graft (immunohistological staining) [4]: many insulin-positive and glucagon-positive cells were confirmed throughout the whole graft | Frequency of appearance (%), Cyst ([4]; total of 4 tests, 21 animals): 10% | Frequency of appearance (%), Outgrowth ([4]; total of 4 tests, 21 animals): 0% | The number of appearance, Cyst ([4]; total of 4 tests, 21 animals): 2 | The number of appearance, Outgrowth ([4]; total of 4 tests, 21 animals): 0
